Consider one molecule from patent US12121521B2, “Uses of salt-inducible kinase (SIK) inhibitors for treating osteoporosis” (The General Hospital Corporation, priority 2016, dated 2024).

What all share (experiment): ScanEDGE kinase panel (DiscoverX)
Common to all, as to type: binding

In one assay the target is T1, DYRK1B (Homo sapiens, UniProt Q9Y463).
T1 construct: T7 phage fusion (most kinases) or DNA tag for qPCR (HEK-293-made kinases); purchased DiscoverX (Fremont, CA); host or cells: E. coli BL21-derived host (T7 phage) or HEK-293
T1 sequence (Q9Y463 whole entry, the tested form may be a part): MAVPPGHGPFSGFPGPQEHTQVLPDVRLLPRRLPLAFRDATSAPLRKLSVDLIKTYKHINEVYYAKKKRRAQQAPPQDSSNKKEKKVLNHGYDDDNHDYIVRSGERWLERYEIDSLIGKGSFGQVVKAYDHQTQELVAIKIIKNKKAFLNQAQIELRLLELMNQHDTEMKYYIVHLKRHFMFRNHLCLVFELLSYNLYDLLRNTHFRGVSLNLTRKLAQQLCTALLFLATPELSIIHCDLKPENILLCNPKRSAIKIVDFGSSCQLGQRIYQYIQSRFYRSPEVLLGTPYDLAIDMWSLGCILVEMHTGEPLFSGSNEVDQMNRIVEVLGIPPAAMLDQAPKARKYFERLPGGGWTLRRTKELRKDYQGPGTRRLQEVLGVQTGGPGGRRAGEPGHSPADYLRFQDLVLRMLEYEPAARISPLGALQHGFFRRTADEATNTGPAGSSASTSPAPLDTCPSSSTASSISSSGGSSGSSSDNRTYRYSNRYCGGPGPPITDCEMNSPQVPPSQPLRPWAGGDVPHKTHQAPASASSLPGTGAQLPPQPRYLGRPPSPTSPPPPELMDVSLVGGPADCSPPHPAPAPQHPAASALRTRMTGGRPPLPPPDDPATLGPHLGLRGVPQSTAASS
The conditions noted are these: read-out: % of control activity at 71 nM. Here is the method:
(§1) ScanEDGE kinase assays paneling specificity across a panel of 96 representative kinases were performed by DiscoverX (Fremont, CA). For most assays, kinase-tagged T7 phage strains were grown in parallel in 24-well blocks in an E. coli host derived from the BL21 strain. Bacteria were grown to log phase and infected with T7 phage from frozen stock (MOI=0.4) and incubated with shaking at 32° C. until lysis (90-150 minutes). The lysates were centrifuged (6000×g) and filtered (0.2 μm) to remove cell debris. The remaining kinases were produced in HEK-293 cells and subsequently tagged with DNA for qPCR detection. […] The liganded beads were blocked with excess biotin and washing with blocking buffer (SeaBlock (Pierce), 1% BSA, 0.05% Tween 20, 1 mM DTT) to remove unbound ligand and to reduce non-specific phage binding. […] Test compounds were prepared as 40× stocks in 100% DMSO and directly diluted into the assay. All reactions were performed in polypropylene 384 well plates in a final volume of 40 μl. […] The kinase concentration in the eluates was measured by qPCR.

The next assay addresses T2, BRAF (Homo sapiens, UniProt P15056).
T2 construct: T7 phage fusion (most kinases) or DNA tag for qPCR (HEK-293-made kinases); purchased DiscoverX (Fremont, CA); host or cells: E. coli BL21-derived host (T7 phage) or HEK-293
The conditions noted are these: read-out: % of control activity at 71 nM. As to the method: as §1

The next assay has as its target T3, VEGFR2 (Homo sapiens, UniProt P35968).
T3 construct: T7 phage fusion (most kinases) or DNA tag after HEK-293 expression; purchased DiscoverX (Fremont, CA), ScanEDGE; host or cells: T7 phage in E. coli BL21-derived host, or HEK-293
The conditions noted are these: read-out: % of control activity at 71 nM. As to the method:
as §1

Another assay concerns the target T4, PIK3C2B (Homo sapiens, UniProt O00750).
T4 construct: T7 phage fusion (most kinases) or DNA tag for qPCR (kinases made in HEK-293); purchased DiscoverX; host or cells: E. coli BL21-derived host (T7 phage) or HEK-293
The conditions noted are these: read-out: % of control activity at 71 nM. As to the method:
as §1

The next assay addresses T5, PIM1 (Homo sapiens, UniProt P11309).
T5 construct: T7 phage fusion (most kinases) or DNA tag for qPCR (kinases made in HEK-293); purchased DiscoverX; host or cells: E. coli BL21-derived host (T7 phage) or HEK-293
The conditions noted are these: read-out: % of control activity at 71 nM. As to the method: as §1

In the next assay the target is T6, INSR (Homo sapiens, UniProt P06213).
T6 construct: T7 phage fusion (most kinases) or DNA tag for qPCR (HEK-293-made kinases); purchased DiscoverX; host or cells: E. coli BL21-derived host (T7 phage) or HEK-293
T6 sequence (P06213 28-1382): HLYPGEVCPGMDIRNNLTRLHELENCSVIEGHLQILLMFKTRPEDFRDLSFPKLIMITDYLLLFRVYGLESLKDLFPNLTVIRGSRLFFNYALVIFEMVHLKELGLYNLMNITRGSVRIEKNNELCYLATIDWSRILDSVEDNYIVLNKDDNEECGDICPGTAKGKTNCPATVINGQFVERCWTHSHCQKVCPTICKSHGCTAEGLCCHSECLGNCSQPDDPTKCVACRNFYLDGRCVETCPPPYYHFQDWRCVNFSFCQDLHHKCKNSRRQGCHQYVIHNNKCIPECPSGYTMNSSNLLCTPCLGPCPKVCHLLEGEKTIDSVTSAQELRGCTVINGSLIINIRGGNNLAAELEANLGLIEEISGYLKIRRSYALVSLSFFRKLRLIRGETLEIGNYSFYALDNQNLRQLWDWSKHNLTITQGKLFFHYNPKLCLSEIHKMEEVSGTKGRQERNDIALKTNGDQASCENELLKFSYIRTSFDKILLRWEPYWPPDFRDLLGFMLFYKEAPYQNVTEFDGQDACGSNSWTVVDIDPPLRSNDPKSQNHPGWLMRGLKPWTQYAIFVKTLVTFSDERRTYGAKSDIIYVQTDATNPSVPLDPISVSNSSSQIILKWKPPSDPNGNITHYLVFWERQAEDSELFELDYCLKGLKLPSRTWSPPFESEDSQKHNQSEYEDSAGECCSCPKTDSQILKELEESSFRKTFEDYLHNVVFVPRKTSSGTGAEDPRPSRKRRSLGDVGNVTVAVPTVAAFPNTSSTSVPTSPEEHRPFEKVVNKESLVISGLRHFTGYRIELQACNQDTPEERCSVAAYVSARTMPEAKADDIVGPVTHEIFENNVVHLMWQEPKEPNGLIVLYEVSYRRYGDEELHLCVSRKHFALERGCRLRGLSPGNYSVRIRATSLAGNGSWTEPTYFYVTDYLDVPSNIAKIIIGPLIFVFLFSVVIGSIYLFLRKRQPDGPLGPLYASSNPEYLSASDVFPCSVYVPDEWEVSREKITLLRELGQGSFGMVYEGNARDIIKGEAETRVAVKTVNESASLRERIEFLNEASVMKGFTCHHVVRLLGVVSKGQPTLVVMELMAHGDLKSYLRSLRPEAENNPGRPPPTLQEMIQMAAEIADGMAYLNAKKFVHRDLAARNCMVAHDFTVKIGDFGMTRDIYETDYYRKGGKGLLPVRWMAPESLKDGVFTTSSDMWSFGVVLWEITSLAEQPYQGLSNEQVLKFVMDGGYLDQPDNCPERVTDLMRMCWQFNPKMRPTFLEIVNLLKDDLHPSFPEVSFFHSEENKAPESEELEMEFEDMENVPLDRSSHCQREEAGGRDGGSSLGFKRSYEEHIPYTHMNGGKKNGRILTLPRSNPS
The conditions noted are these: read-out: % of control activity at 71 nM. Here is the method: as §1

The target of a further assay is T7, MLK1 (Homo sapiens, UniProt P80192).
T7 construct: T7 phage fusion (most kinases) or DNA tag for qPCR (kinases made in HEK-293); purchased DiscoverX; host or cells: E. coli BL21-derived host (T7 phage) or HEK-293
T7 sequence (P80192 whole entry, the tested form may be a part): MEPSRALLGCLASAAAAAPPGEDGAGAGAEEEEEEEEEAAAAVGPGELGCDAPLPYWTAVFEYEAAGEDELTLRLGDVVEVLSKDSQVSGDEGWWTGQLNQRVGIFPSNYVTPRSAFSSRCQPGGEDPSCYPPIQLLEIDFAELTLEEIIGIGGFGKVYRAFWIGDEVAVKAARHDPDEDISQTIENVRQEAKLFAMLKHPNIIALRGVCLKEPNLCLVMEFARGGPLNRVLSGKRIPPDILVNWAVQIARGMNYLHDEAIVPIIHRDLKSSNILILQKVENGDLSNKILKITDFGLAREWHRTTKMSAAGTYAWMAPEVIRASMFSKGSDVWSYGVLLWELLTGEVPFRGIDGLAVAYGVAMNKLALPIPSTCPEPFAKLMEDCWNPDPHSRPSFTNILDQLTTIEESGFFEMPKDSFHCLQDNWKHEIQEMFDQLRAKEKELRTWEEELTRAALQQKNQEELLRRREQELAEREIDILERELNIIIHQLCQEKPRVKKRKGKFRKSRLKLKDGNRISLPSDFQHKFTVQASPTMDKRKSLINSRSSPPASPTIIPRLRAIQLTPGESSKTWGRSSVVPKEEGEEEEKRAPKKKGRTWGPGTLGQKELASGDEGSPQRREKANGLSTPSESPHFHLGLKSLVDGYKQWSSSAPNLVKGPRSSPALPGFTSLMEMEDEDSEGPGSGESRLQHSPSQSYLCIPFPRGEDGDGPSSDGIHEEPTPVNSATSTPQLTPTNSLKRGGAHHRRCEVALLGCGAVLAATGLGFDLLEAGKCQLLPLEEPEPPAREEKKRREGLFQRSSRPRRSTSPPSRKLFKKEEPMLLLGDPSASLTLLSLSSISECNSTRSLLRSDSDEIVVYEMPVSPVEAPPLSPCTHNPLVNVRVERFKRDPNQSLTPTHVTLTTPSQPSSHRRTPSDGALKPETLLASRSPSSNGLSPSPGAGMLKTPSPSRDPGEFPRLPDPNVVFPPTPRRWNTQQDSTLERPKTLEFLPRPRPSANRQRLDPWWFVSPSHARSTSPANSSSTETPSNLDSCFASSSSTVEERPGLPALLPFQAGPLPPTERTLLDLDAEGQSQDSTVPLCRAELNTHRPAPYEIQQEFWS
The conditions noted are these: read-out: % of control activity at 71 nM. As to the method:
as §1

Another assay addresses T8, PDGFRB (Homo sapiens, UniProt P09619).
T8 construct: T7 phage fusion (most kinases) or DNA tag for qPCR (kinases made in HEK-293); purchased DiscoverX; host or cells: E. coli BL21-derived host (T7 phage) or HEK-293
The conditions noted are these: read-out: % of control activity at 71 nM. Here is the method: as §1

The next assay deals with T9, CDK7 (Homo sapiens, UniProt P50613).
T9 construct: T7 phage fusion (most kinases) or DNA tag for qPCR (HEK-293-made kinases); purchased DiscoverX (Fremont, CA); host or cells: E. coli BL21-derived host (T7 phage) or HEK-293
The conditions noted are these: read-out: % of control activity at 71 nM. As to the method: as §1

A further assay concerns the target T10, CDK11 (Homo sapiens, UniProt Q9BWU1).
T10 construct: T7 phage fusion (most kinases) or DNA tag for qPCR (HEK-293-made kinases); purchased DiscoverX (Fremont, CA); host or cells: E. coli BL21-derived host (T7 phage) or HEK-293
The conditions noted are these: read-out: % of control activity at 71 nM. As to the method:
as §1

The next assay deals with T11, SIK (SIK1) (Homo sapiens, UniProt P57059).
T11 construct: T7 phage fusion (most kinases) or DNA tag after HEK-293 expression; purchased DiscoverX (Fremont, CA), ScanEDGE; host or cells: T7 phage in E. coli BL21-derived host, or HEK-293
The conditions noted are these: SIK refers to SIK1, read-out: % of control activity at 71 nM. As to the method:
as §1

The target in the next assay is T12, ULK2 (Homo sapiens, UniProt Q8IYT8).
T12 construct: T7 phage fusion (most kinases) or DNA tag after HEK-293 expression; purchased DiscoverX (Fremont, CA), ScanEDGE; host or cells: T7 phage in E. coli BL21-derived host, or HEK-293
The conditions noted are these: read-out: % of control activity at 71 nM. Here is the method: as §1

Another assay concerns the target T13, MELK (Homo sapiens, UniProt Q14680).
T13 construct: T7 phage fusion (most kinases) or DNA tag for qPCR (kinases made in HEK-293); purchased DiscoverX; host or cells: E. coli BL21-derived host (T7 phage) or HEK-293
The conditions noted are these: read-out: % of control activity at 71 nM. As to the method:
as §1

The next assay concerns the target T14, CSNK1G2 (Homo sapiens, UniProt P78368).
T14 construct: T7 phage fusion (most kinases) or DNA tag for qPCR (HEK-293-made kinases); purchased DiscoverX (Fremont, CA); host or cells: E. coli BL21-derived host (T7 phage) or HEK-293
The conditions noted are these: read-out: % of control activity at 71 nM. Here is the method: as §1

A further assay deals with T15, MARK3 (Homo sapiens, UniProt P27448).
T15 construct: T7 phage fusion (most kinases) or DNA tag for qPCR (HEK-293-made kinases); purchased DiscoverX; host or cells: E. coli BL21-derived host (T7 phage) or HEK-293
The conditions noted are these: read-out: % of control activity at 71 nM. As to the method: as §1

The target of the next assay is T16, ABL1 (Homo sapiens, UniProt P00519).
T16 construct: T7 phage fusion (most kinases) or DNA tag for qPCR (HEK-293-made kinases); purchased DiscoverX (Fremont, CA); host or cells: E. coli BL21-derived host (T7 phage) or HEK-293
T16 sequence (P00519 whole entry, the tested form may be a part): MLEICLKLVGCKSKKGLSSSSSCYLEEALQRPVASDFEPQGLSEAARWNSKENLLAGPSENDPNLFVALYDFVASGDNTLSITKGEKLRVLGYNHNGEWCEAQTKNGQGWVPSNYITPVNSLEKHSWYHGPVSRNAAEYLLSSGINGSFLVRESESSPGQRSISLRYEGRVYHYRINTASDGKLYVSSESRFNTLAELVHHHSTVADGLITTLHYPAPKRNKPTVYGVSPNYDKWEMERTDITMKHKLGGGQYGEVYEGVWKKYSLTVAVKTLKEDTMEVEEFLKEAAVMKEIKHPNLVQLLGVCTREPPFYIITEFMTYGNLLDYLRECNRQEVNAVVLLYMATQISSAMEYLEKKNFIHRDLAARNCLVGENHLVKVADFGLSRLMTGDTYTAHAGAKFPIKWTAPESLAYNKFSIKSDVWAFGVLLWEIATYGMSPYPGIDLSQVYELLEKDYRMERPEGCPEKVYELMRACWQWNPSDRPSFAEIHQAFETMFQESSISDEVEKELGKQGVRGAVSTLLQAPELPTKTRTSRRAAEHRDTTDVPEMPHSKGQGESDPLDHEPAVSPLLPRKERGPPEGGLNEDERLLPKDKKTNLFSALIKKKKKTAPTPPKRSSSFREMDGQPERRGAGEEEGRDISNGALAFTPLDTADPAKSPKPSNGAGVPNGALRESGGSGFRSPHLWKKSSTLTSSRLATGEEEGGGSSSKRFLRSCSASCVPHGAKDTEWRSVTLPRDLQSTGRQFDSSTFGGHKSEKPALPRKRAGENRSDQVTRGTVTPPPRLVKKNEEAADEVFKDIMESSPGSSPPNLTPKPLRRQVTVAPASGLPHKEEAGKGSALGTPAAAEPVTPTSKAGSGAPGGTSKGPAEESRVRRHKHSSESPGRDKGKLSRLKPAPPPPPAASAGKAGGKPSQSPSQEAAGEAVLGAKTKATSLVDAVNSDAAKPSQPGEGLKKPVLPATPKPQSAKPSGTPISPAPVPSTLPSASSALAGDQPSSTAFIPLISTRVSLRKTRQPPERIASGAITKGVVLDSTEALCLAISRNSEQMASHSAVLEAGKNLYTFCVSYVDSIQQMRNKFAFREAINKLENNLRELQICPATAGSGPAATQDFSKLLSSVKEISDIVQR
The conditions noted are these: read-out: % of control activity at 71 nM. Here is the method:
as §1

T2 sequence (P15056 whole entry, the tested form may be a part): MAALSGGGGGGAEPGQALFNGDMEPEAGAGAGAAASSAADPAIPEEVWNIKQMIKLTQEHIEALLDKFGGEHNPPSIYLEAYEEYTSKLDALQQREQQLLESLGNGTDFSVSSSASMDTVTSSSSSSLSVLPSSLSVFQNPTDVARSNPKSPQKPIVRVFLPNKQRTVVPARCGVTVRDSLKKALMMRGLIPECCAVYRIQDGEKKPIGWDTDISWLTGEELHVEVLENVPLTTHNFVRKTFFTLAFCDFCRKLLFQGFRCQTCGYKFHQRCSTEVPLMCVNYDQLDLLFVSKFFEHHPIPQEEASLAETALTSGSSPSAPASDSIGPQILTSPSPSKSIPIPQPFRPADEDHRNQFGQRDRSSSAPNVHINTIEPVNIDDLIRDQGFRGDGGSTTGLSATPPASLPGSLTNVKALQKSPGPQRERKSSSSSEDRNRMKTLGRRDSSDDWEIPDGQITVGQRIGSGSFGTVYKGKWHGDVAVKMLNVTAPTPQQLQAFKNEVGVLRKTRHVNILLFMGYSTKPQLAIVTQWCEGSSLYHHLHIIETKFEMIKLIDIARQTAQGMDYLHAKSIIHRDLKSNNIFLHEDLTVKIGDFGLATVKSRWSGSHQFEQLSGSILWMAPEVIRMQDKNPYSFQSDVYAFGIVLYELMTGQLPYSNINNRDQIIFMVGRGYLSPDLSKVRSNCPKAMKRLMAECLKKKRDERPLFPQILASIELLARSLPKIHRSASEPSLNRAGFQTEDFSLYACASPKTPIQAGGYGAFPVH

Consider `COc1ccc(N2C(=O)N(c3c(C)cccc3C)Cc3cnc(Nc4ccc(C5CCN(C)CC5)c(OC)c4)nc32)c(OC)c1` [YKL-05-093], for which the remaining binding at 0.071 µM at DYRK1B was found to be 93%; at BRAF, 66%; on VEGFR2, 26%; on PIK3C2B, 100%; at PIM1, 89%; on INSR, 56%. The remaining binding at 0.071 µM turned out to be 12% on MLK1; 0.35% at PDGFRB; 85% at CDK7; 88% on CDK11; 0.6% on SIK (SIK1); 31% at ULK2. For the same molecule, the remaining binding at 0.071 µM on MELK was 36%; on CSNK1G2, 100%; at MARK3 it was 40%; on ABL1, 0.2%.
